Test results reported in patent publication US12617790B2, “Mitragynine analogs and uses thereof” (Memorial Sloan-Kettering Cancer Center, priority 2015, dated 2026).
Read-outs that look alike come from different tables or passages of the source.

How the values were obtained:
[1] = biological target: T1, MOR-1 (Mus musculus, UniProt P42866); assay: Competition binding against 125I-IBNtxA in MOR-1/CHO membranes
T1 construct: expressed in transfected cells; host or cells: CHO

[2] = biological target: T2, KOR-1 (Mus musculus, UniProt P33534); assay: Competition binding against 125I-IBNtxA in KOR-1/CHO membranes; conditions: 125I-IBNtxA (0.1 nM), CHO membranes, cloned mouse receptor; read-out: Affinity (Ki nM) KOR-1
T2 construct: expressed in transfected cells; host or cells: CHO

[3] = biological target: T3, DOR-1 (Mus musculus, UniProt P32300); assay: Competition binding against 125I-IBNtxA in DOR-1/CHO membranes; conditions: 125I-IBNtxA (0.1 nM), CHO membranes, cloned mouse receptor; read-out: Affinity (Ki nM) DOR-1
T3 construct: expressed in transfected cells; host or cells: CHO

With `CC[C@@H]1CN2CCC3c4c(cccc4OC)NC3[C@@H]2C[C@@H]1/C(=C\OC)C(=O)OC` (stereo partly drawn) [VM1542, Methyl (E)-2-((2S,3S,12bS)-3-ethyl-8-methoxy-1,2,3,4,6,7,7a,12,12a,12b-decahydroindolo[2,3-a]quinolizin-2-yl)-3-methoxyacrylate] the Ki [1] was 116 nM, the Ki [2] was 329 nM and the Ki [3] was 374 nM.

Work on `CC[C@@H]1CN2CC[C@@]3(O)C(=Nc4ccc(-c5ccoc5)c(OC)c43)C2C[C@@H]1/C(=C\OC)C(=O)OC` (stereo partly drawn) [VM1523, Methyl (E)-2-((2S,3S,7aS)-3-ethyl-9-(furan-3-yl)-7a-hydroxy-8-methoxy-1,2,3,4,6,7,7a,12b-octahydroindolo[2,3-a]quinolizin-2-yl)-3-methoxyacrylate] yielded a Ki [1] of 36 nM, a Ki [2] of 36 nM and a Ki [3] of 109 nM.

Work on `CC[C@@H]1CN2CCc3c(n(Cc4ccccc4)c4cccc(OC)c34)[C@@H]2C[C@@H]1/C(=C\OC)C(=O)OC` [VM1533, Methyl (E)-2-((2S,3S,12bS)-12-benzyl-3-ethyl-8-methoxy-1,2,3,4,6,7,12,12b-octahydroindolo[2,3-a]quinolizin-2-yl)-3-methoxyacrylate] yielded a Ki [1] of 93 nM, a Ki [2] of 395 nM and a Ki [3] of over 1000 nM.

`CC[C@@H]1CN2CCc3c([nH]c4cccc(OC)c34)[C@@H]2C[C@@H]1[C@@H](C)COC` [VM1536, (2S,3S,12bS)-3-ethyl-8-methoxy-2-((R)-1-methoxypropan-2-yl)-1,2,3,4,6,7,12,12b-octahydroindolo[2,3-a]quinolizine] gave a Ki [1] of over 1000 nM.

In the case of `CC[C@@H]1CN2CC[C@@]3(O)C(=Nc4c(-c5ccoc5)ccc(OC)c43)C2C[C@@H]1/C(=C\OC)C(=O)OC` (stereo partly drawn) [VM1524, Methyl (E)-2-((2S,3S,7aS)-3-ethyl-11-(furan-3-yl)-7a-hydroxy-8-methoxy-1,2,3,4,6,7,7a,12b-octahydroindolo[2,3-a]quinolizin-2-yl)-3-methoxyacrylate], the Ki [1] is reported as 117 nM, the Ki [2] is reported as 338 nM and the Ki [3] is reported as over 1000 nM.

`CC[C@@H]1CN2CC[C@@]3(N4CCCCC4)C(=Nc4cccc(OC)c43)[C@@H]2C[C@@H]1/C(=C\OC)C(=O)OC` [VM1526, Methyl (E)-2-((2S,3S,7aS,12bS)-3-ethyl-8-methoxy-7a-(piperidin-1-yl)-1,2,3,4,6,7,7a,12b-octahydroindolo[2,3-a]quinolizin-2-yl)-3-methoxyacrylate] was tested, and the Ki [1] was 247 nM, the Ki [2] was 72 nM and the Ki [3] was 369 nM.

With `CC[C@@H]1CN2CCc3c([nH]c4cccc(-c5ccoc5)c34)[C@@H]2C[C@@H]1/C(=C\OC)C(=O)OC` [VM1539] the Ki ([1]; read-out: Affinity (Ki nM) MOR-1, 125I-IBNtxA (0.1 nM), CHO membranes, cloned mouse receptor) was 52 nM, the Ki [2] was 14 nM and the Ki [3] was 332 nM.

`CC[C@@H]1CN2CCc3c([nH]c4ccc(-c5ccoc5)c(OC)c34)C2C[C@@H]1/C(=C\OC)C(=O)OC` (stereo partly drawn) [VM1519, Methyl (E)-2-((2S,3S)-3-ethyl-9-(furan-3-yl)-8-methoxy-1,2,3,4,6,7,12,12b-octahydroindolo[2,3-a]quinolizin-2-yl)-3-methoxyacrylate] showed a Ki [1] of 281 nM, a Ki [2] of 129 nM and a Ki [3] of 653 nM.

With `CC[C@@H]1CN2CCc3c([nH]c4c(-c5ccoc5)ccc(OC)c34)C2C[C@@H]1/C(=C\OC)C(=O)OC` (stereo partly drawn) [VM1520, Methyl (E)-2-((2S,3S)-3-ethyl-11-(furan-3-yl)-8-methoxy-1,2,3,4,6,7,12,12b-octahydroindolo[2,3-a]quinolizin-2-yl)-3-methoxyacrylate] the Ki [1] was 278 nM, the Ki [2] was 185 nM and the Ki [3] was 617 nM.

With `CC[C@@H]1CN2CC[C@@]3(C(=O)c4c(OC)cccc4N3C)C2C[C@@H]1/C(=C\OC)C(=O)OC` (stereo partly drawn) [VM1503, (E)-methyl 2-((1'S,6'S,7'S)-6′-ethyl-4-methoxy-1-methyl-3-oxo-3′,5′,6′,7′,8′,8a′-hexahydro-2′H-spiro[indoline-2,1′-indolizine]-7′-yl)-3-methoxyacrylate] the Ki [1] was 375 nM, the Ki [2] was over 1000 nM and the Ki [3] was over 1000 nM.

For `COC(=O)CC1CCN2CC[C@@]3(O)C(=Nc4cccc(OC)c43)C2C1` (stereo partly drawn) [VM1531, Methyl 2-((7aS)-7a-hydroxy-8-methoxy-1,2,3,4,6,7,7a,12b-octahydroindolo[2,3-a]quinolizin-2-yl)acetate], the Ki [1] was over 1000 nM, the Ki [2] was over 1000 nM and the Ki [3] was over 1000 nM.

Work on `CC[C@@H]1CN2CCc3c([nH]c4ccc(-c5ccccc5)c(OC)c34)C2C[C@@H]1/C(=C\OC)C(=O)OC` (stereo partly drawn) [VM1521, Methyl (E)-2-((2S,3S)-3-ethyl-9-(phenyl)-8-methoxy-1,2,3,4,6,7,12,12b-octahydroindolo[2,3-a]quinolizin-2-yl)-3-methoxyacrylate] yielded a Ki [1] of 364 nM, a Ki [2] of 204 nM and a Ki [3] of over 1000 nM.

`CC[C@@H]1CN2CCC3(Nc4ccc(Cl)c(OC)c4C3=O)C2C[C@@H]1/C(=C\OC)C(=O)OC` (stereo partly drawn) [VM1516, Methyl (E)-2-((6'S,7'S)-5-chloro-6′-ethyl-4-methoxy-3-oxo-2′,3′,6′,7′,8′,8a′-hexahydro-5′H-spiro[indoline-2,1′-indolizin]-7′-yl)-3-methoxyacrylate] gave a Ki [1] of 0.41 nM, a Ki [2] of 12 nM and a Ki [3] of 2.1 nM.

Molecule `CC[C@@H]1CN2CCc3c([nH]c4ccc(Br)c(OC)c34)C2C[C@@H]1/C(=C\OC)C(=O)OC` (stereo partly drawn) [VM1517, Methyl (E)-2-((2S,3S)-9-bromo-3-ethyl-8-methoxy-1,2,3,4,6,7,12,12b-octahydroindolo[2,3-a]quinolizin-2-yl)-3-methoxyacrylate] has a Ki [1] of 104 nM, a Ki [2] of 195 nM and a Ki [3] of 847 nM.

`C=C(COC)[C@H]1C[C@H]2c3[nH]c4cccc(OC)c4c3CCN2C[C@H]1CC` [VM1535, (2S,3S,12bS)-3-ethyl-8-methoxy-2-(3-methoxyprop-1-en-2-yl)-1,2,3,4,6,7,12,12b-octahydroindolo[2,3-a]quinolizine] showed a Ki [1] of over 1000 nM.

Molecule `CC[C@@H]1CN2CCc3c(n(C)c4cccc(OC)c34)[C@@H]2C[C@@H]1/C(=C\OC)C(=O)OC` [VM1541, Methyl (E)-2-((2S,3S,12bS)-3-ethyl-8-methoxy-12-methyl-1,2,3,4,6,7,12,12b-octahydroindolo[2,3-a]quinolizin-2-yl)-3-methoxyacrylate] has a Ki [1] of 163 nM, a Ki [2] of 143 nM and a Ki [3] of over 1000 nM.

`CC[C@@H]1CN2CCc3c([nH]c4cccc(OC)c34)[C@@H]2C[C@@H]1/C(=C\OC)CO` [VM1534, (E)-2-((2S,3S,12bS)-3-ethyl-8-methoxy-1,2,3,4,6,7,12,12b-octahydroindolo[2,3-a]quinolizin-2-yl)-3-methoxyprop-2-en-1-ol] gave a Ki [1] of over 1000 nM.

Molecule `CC[C@@H]1CN2CC[C@@]3(OC)C(=Nc4cccc(OC)c43)[C@@H]2C[C@@H]1/C(=C\OC)C(=O)OC` [VM1537, Methyl (E)-2-((2S,3S,7aS,12bS)-3-ethyl-7a,8-dimethoxy-1,2,3,4,6,7,7a,12b-octahydroindolo[2,3-a]quinolizin-2-yl)-3-methoxyacrylate] has a Ki [1] of 190 nM, a Ki [2] of 90 nM and a Ki [3] of 997 nM.

Work on `CC[C@@H]1CN2CC[C@@]3(C(=O)c4c(OC)cccc4N3Cc3ccccc3)C2C[C@@H]1/C(=C\OC)C(=O)OC` (stereo partly drawn) [VM1505, (E)-methyl 2-((1'S,6'S,7'S)-1-benzyl-6′-ethyl-4-methoxy-3-oxo-3′,5′,6′,7′,8′,8a′-hexahydro-2′H-spiro[indoline-2,1′-indolizine]-7′-yl)-3-methoxyacrylate] yielded a Ki [1] of 249 nM, a Ki [2] of 136 nM and a Ki [3] of 258 nM.
